According to patent US20240295545A1, “GLIOMA THERAPY” (Imperial College Innovations Limited, priority 2021, published 2024):
“Also recorded” adds a separate entry of the source.

Assays:
[1] = target: T1, mitochondrial F1Fo ATP Synthase c-subunit leak channel (Sus scrofa, UniProt A1XQS5); experiment: ACMA assay (H+ leak in submitochondrial vesicles); type: biochemical, pig; settings: negative control; swine brain SMVs
T1 construct: isolated swine brain submitochondrial vesicles (SMVs), which are enriched for the F1Fo ATP synthase; from tissue; host or cells: pig (swine) brain, submitochondrial vesicles
T1 sequence (A1XQS5 62-136): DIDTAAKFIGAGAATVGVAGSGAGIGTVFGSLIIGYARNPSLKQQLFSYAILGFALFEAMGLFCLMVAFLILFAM
Method: ACMA assay buffer (concentrations used throughout the assay):
ACMA solution: • Stock solution of 1 mg/ml (3.87 mM) ACMA in 100% ethanol • Diluted to working solution (3 μM) in assay buffer • Aliquots of 10 μL to be added to wells
• 1. Sub-mitochondrial vesicles (SMVs) isolated from pig brains were thawed and prepared to 0.17 μg/μL in ACMA assay buffer. • 2. Drug solutions were added to 386-well plates at a final concentration of 10 μM. • 3. Sub-mitochondrial vesicles (SMVs), isolated from pig brains, were thawed and prepared to 0.17 μg/μL in ACMA assay buffer. 30 μL of this solution (containing 5 μg of polypeptide, as measured via the QuickStart Bradford Protein Assay (Bio-Rad, UK)) was added to each well. • 4. Stock solution of 1 mg/ml (3.87 mM) ACMA (9-amino-6-chloro-2-methoxyacridine) were diluted to working solution 3 μM in assay buffer. Aliquots of 10 μL were added to each well (final concentration of 0.75 μM). • 5. The samples were mixed and incubated at room temperature for 20 mins. • 6. The ACMA fluorescence was measured at 1 min intervals using a Tecan Infinite M200 plate reader—excitation 412 nm, emission 480 nm. • 7. […] Fluorescence was measured quickly after addition of ATP for another 7 mins (1 min intervals). […]

GBM1 cells = experiment: Glioma suppression assay (SRB proliferation); type: cell-based, human; settings: in vitro; FIG. 4D
Method: • 1. Without removing the cell culture medium, gently add 50% cold TCA to each well (the final concentration of TCA should be 10%), and incubate the plates at 4° C. for 1 h. For 150 μL medium volume in each well, add 30 μL of 50% TCA. • 2. Wash the plates 4 times with slow-running tap water. Then allow the plates to air-dry at RT. After fixing and drying, the plates can be stored indefinitely at RT. • 3. Add 0.4% SRB solution to each well (e.g. 80 μL/well). Leave at room temperature for 1 h (no shaking) and then quickly rinse the plates 4 times with 1% acetic acid to remove unbound dye. Then allow the plates to dry at RT. Stained and dried plates can be stored indefinitely at RT. • 4. Add 10 mM Tris base solution to each well (e.g. 80 μL/well) and shake the plate for 5 min to solubilize the protein-bound dye. Alternatively, if a shaker is not available, SRB can be solubilized after 30 min in 10 mM Tris base solution. • 5. Measure the OD at […] in a microplate reader. The suboptimal wavelengths should be 490-530 nm.
1000 Grade IV cells (cell line 1 in FIG. 2) were plated in cell culture medium (10% FBS in DMEM) per each well in 96-well plates. On day 1, the cells were treated with 10 μM of the indicated drugs and incubated at 37° C. for 5 days. SRB assay was performed prior to addition of the drugs and after 5 days. The values were normalized against those of the control (untreated cultures). […]

[2] = tested on: grade III astrocytoma cells; experiment: Proliferation of primary tumour cells incubated with mitochondrial toxins, grade III; type: cell-based, human; settings: rotenone 100 nM, oligomycin 50 nM, UK5099 10 μM; hypoxia and normoxia; FIG. 1B
Source text: (§1) The cell lines employed were low-passage lines, derived from tumour tissue. The cells were obtained from tumour tissue of a highly proliferative glioma (which was a grade IV/glioblastoma multiforme glioma). For comparison, cells were also obtained from a tumour tissue of a comparatively slow-growing glioma (which was a grade III glioma).
(§2) The inventors compared the metabolic and mitochondrial energetic profile of slow-growing glioma/astrocytoma cells (chosen in particular due to their relatively slow growth rate) to that in cells of a highly proliferative glioma primary tumour cells by performing ‘hypoxia’ experiments with primary tumour cells, in which primary tumour cells were deprived of adequate oxygen supply and compared with control cells not so deprived (‘normoxia’). […] The slow growing cells were selected from a grade III glioma, and the highly proliferative cells were chosen from a grade IV glioma i.e. glioblastoma multiforme cells.
(§3) To further investigate this, primary tumour cells were incubated (both under hypoxia and normoxia) with the toxins rotenone (100 nM), oligomycin (50 nM), a combination of rotenone and oligomycin (100 nM and 50 nM, respectively) or UK5099 (10 μM).

Grade IV (GBM) cells = experiment: Proliferation of primary tumour cells incubated with mitochondrial toxins, GBM; type: cell-based, human; settings: rotenone 100 nM, oligomycin 50 nM, UK5099 10 μM; hypoxia and normoxia; FIG. 1B
Source text: as §1, §2, §3

SMILES | ATP response in ACMA assay [1] | effect on proliferation of GBM1 cell line (highest rate of proliferation) (GBM1 cells) | effect on proliferation of grade III astrocytoma cells [2] | effect on proliferation of GBM cells (Grade IV (GBM) cells)
N#CC(C#N)=NNc1ccc(OC(F)(F)F)cc1 [FCCP, carbonylcyanide p-trifluoromethoxyphenylhydrazone] | attenuated | – | – | –
Cn1nnc2c(C(N)=O)ncn2c1=O [TMZ, temozolomide] | – | no effect | – | –
N#C/C(=C\c1cn(-c2ccccc2)c2ccccc12)C(=O)O [UK5099] | – | – | without a significant effect | decreases the proliferation; also recorded: impeded the proliferation
CC[C@H]1/C=C/C=C/C[C@@H](C)[C@H](O)[C@@](C)(O)C(=O)[C@@H](C)[C@H](O)[C@@H](C)C(=O)[C@@H](C)[C@H](O)[C@@H](C)/C=C/C(=O)O[C@@H]2[C@H](C)[C@H](CC1)O[C@]1(CC[C@H](C)[C@H](C[C@@H](C)O)O1)[C@H]2C [oligomycin] | attenuated | – | without a significant effect | decreases the proliferation; also recorded: impeded the proliferation
C=C(C)[C@H]1Cc2c(ccc3c2O[C@@H]2COc4cc(OC)c(OC)cc4[C@@H]2C3=O)O1 [rotenone] | – | – | without a significant effect | decreases the proliferation; also recorded: impeded the proliferation
